Measured values: US6914045B2, “Glycopeptide antibiotics” (Wyeth Holdings Corporation, priority 2001, dated 2005)
Converted amounts (≈) assume the structure as drawn.

Assays:
Experiment in all cases: in vitro antibacterial evaluation, MIC by broth dilution
Format in all cases: cell-based
Enterococcus sp. = details: broth dilution, 18 hours at 35° C.; for MIC Enterococcus faecalis (ATCC 29212): strain ATCC 29212; for MIC Enterococcus faecalis (GC 2242): strain GC 2242; for MIC Enterococcus faecium (GC 2243): strain GC 2243; for MIC Enterococcus faecalis (GC 2691): strain GC 2691; for MIC Enterococcus faecalis (GC 3059): strain GC 3059; for MIC Enterococcus faecalis (GC 4552): strain GC 4552; for MIC Enterococcus faecalis (GC 4553): strain GC 4553; for MIC Enterococcus faecalis (GC 4554): strain GC 4554; for MIC Enterococcus faecium (GC 4556): strain GC 4556; for MIC Enterococcus faecium (GC 4557): strain GC 4557; for MIC Enterococcus avium (GC 4558): strain GC 4558; for MIC Enterococcus faecalis (GC 6189): strain GC 6189
Method in brief: (§1)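 Test organisms, which included recent clinical isolates resistant to methicillin, penicillin and/or vancomycin, were inoculated at 5×10^5 CFU/mL into Muller-Hinton II […] containing antibiotic at 64-0.06 μg/mL. Minimum inhibitory concentrations were then read as the lowest level inhibiting growth.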

Escherichia coli = system: Escherichia coli
Method in brief: as §1

Staphylococcus sp. = details: broth dilution, 18 hours at 35° C.; for MIC Staphylococcus aureus (GC 1131): strain GC 1131
Method in brief: as §1

Streptococcus sp. = details: broth dilution, 18 hours at 35° C.; for MIC Streptococcus pneumoniae (ATCC 6301): strain ATCC 6301; for MIC Streptococcus pneumoniae (GC 1894): strain GC 1894; for MIC Streptococcus pyogenes (GC 4563): strain GC 4563; for MIC Streptococcus agalactiae (GC 4564): strain GC 4564; for MIC Streptococcus pneumoniae (GC 4565): strain GC 4565
Method in brief: as §1

**Q.** For `CC(c1ccccc1)C1NC(=O)CNC(=O)C(CO)NC(=O)C(C(O)C2CNC(=N)N2C2OC(CO)C(O)C(O)C2O)NC(=O)C(C(O)C2CNC(=N)N2)NC(=O)C(Cc2ccc(OC3OC(CO)C(OC4OC5COC(c6ccc(-c7ccc(Cl)cc7)cc6)OC5C(O)C4O)C(O)C3O)cc2)NC1=O` (stereo not drawn) [Example 178, Cyclo[glycyl-β-methylphenylalanyl-O-[4-O-[4,6-O-[4-(4-chlorophenyl)benzylidene]hexopyranosyl]hexopyranosyl]tyrosyl-3-(2-iminoimidazolidin-4-yl)seryl-3-(3-hexopyranosyl-2-iminoimidazolidin-4-yl)serylseryl]], which “MIC Enterococcus faecalis (ATCC 29212)” value (Enterococcus sp.; inoculum 5×10^5 CFU/mL) is on record?
**A.** The value was 4 µg/mL (≈ 2.68 µM).

**Q.** What about the “MIC Enterococcus faecalis (GC 2242)” value (Enterococcus sp.; inoculum 5×10^5 CFU/mL) of the same compound?
**A.** The value was 2 µg/mL (≈ 1.34 µM).

**Q.** And the “MIC Enterococcus faecium (GC 2243)” value (Enterococcus sp.; inoculum 5×10^5 CFU/mL)?
**A.** Its value is 4 µg/mL (≈ 2.68 µM).

**Q.** What about the “MIC Enterococcus faecalis (GC 2691)” value (Enterococcus sp.; inoculum 5×10^5 CFU/mL) of the same compound?
**A.** The value was 1 µg/mL (≈ 0.669 µM).

**Q.** What about the “MIC Enterococcus faecalis (GC 3059)” value (Enterococcus sp.; inoculum 5×10^5 CFU/mL) of the same compound?
**A.** The value was 16 µg/mL (≈ 10.7 µM).

**Q.** And the “MIC Enterococcus faecalis (GC 4552)” value (Enterococcus sp.; inoculum 5×10^5 CFU/mL)?
**A.** The value was 4 µg/mL (≈ 2.68 µM).

**Q.** What about the “MIC Enterococcus faecalis (GC 4553)” value (Enterococcus sp.; inoculum 5×10^5 CFU/mL) of the same compound?
**A.** The value was 2 µg/mL (≈ 1.34 µM).

**Q.** What about the “MIC Enterococcus faecalis (GC 4554)” value (Enterococcus sp.; inoculum 5×10^5 CFU/mL) of the same compound?
**A.** The value was 2 µg/mL (≈ 1.34 µM).

**Q.** What about the “MIC Enterococcus faecium (GC 4556)” value (Enterococcus sp.; inoculum 5×10^5 CFU/mL) of the same compound?
**A.** Its value is 4 µg/mL (≈ 2.68 µM).

**Q.** What about the “MIC Enterococcus faecium (GC 4557)” value (Enterococcus sp.; inoculum 5×10^5 CFU/mL) of the same compound?
**A.** The value was 8 µg/mL (≈ 5.36 µM).

**Q.** What about the “MIC Enterococcus avium (GC 4558)” value (Enterococcus sp.; inoculum 5×10^5 CFU/mL) of the same compound?
**A.** The value was 4 µg/mL (≈ 2.68 µM).

**Q.** And the “MIC Enterococcus faecalis (GC 6189)” value (Enterococcus sp.; inoculum 5×10^5 CFU/mL)?
**A.** Its value is 0.5 µg/mL (≈ 0.335 µM).

**Q.** What about the “MIC Enterococcus faecalis (ATCC 29212)” value (Enterococcus sp.) of the same compound?
**A.** The value was 4 µg/mL (≈ 2.68 µM).

**Q.** What about the “MIC Enterococcus faecalis (GC 2242)” value (Enterococcus sp.) of the same compound?
**A.** Its value is 2 µg/mL (≈ 1.34 µM).

**Q.** And the “MIC Enterococcus faecium (GC 2243)” value (Enterococcus sp.)?
**A.** The value was 4 µg/mL (≈ 2.68 µM).

**Q.** What about the “MIC Enterococcus faecalis (GC 2691)” value (Enterococcus sp.) of the same compound?
**A.** Its value is 1 µg/mL (≈ 0.669 µM).

**Q.** What about the “MIC Enterococcus faecalis (GC 3059)” value (Enterococcus sp.) of the same compound?
**A.** Its value is 16 µg/mL (≈ 10.7 µM).

**Q.** And the “MIC Enterococcus faecalis (GC 4552)” value (Enterococcus sp.)?
**A.** The value was 4 µg/mL (≈ 2.68 µM).

**Q.** And the “MIC Enterococcus faecalis (GC 4553)” value (Enterococcus sp.)?
**A.** Its value is 2 µg/mL (≈ 1.34 µM).

**Q.** What about the “MIC Enterococcus faecalis (GC 4554)” value (Enterococcus sp.) of the same compound?
**A.** The value was 2 µg/mL (≈ 1.34 µM).

**Q.** And the “MIC Enterococcus faecium (GC 4556)” value (Enterococcus sp.)?
**A.** The value was 4 µg/mL (≈ 2.68 µM).

**Q.** And the “MIC Enterococcus faecium (GC 4557)” value (Enterococcus sp.)?
**A.** The value was 8 µg/mL (≈ 5.36 µM).

**Q.** What about the “MIC Enterococcus avium (GC 4558)” value (Enterococcus sp.) of the same compound?
**A.** Its value is 4 µg/mL (≈ 2.68 µM).

**Q.** What about the “MIC Enterococcus faecalis (GC 6189)” value (Enterococcus sp.) of the same compound?
**A.** Its value is 0.5 µg/mL (≈ 0.335 µM).

**Q.** And the “MIC Escherichia coli (ATCC 25922)” value (Escherichia coli; strain ATCC 25922, 18 hours at 35° C.)?
**A.** The value was greater than 64 µg/mL.

**Q.** What about the “MIC Escherichia coli (GC 4559)” value (Escherichia coli; strain GC 4559, 18 hours at 35° C.) of the same compound?
**A.** Its value is greater than 64 µg/mL.

**Q.** What about the “MIC Escherichia coli (GC 4560)” value (Escherichia coli; strain GC 4560, 18 hours at 35° C.) of the same compound?
**A.** Its value is 16 µg/mL (≈ 10.7 µM).

**Q.** What about the “MIC Staphylococcus aureus (GC 1131)” value (Staphylococcus sp.; inoculum 5×10^5 CFU/mL) of the same compound?
**A.** The value was 4 µg/mL (≈ 2.68 µM).

**Q.** And the “MIC Staphylococcus aureus (ATCC 29213)” value (Staphylococcus sp.; strain ATCC 29213)?
**A.** The value was 16 µg/mL (≈ 10.7 µM).

**Q.** What about the “MIC Staphylococcus aureus (GC 1131)” value (Staphylococcus sp.) of the same compound?
**A.** The value was 4 µg/mL (≈ 2.68 µM).

**Q.** What about the “MIC Staphylococcus aureus (GC 3051)” value (Staphylococcus sp.; strain GC 3051) of the same compound?
**A.** The value was 8 µg/mL (≈ 5.36 µM).

**Q.** And the “MIC Staphylococcus aureus (GC 3053)” value (Staphylococcus sp.; strain GC 3053)?
**A.** The value was 4 µg/mL (≈ 2.68 µM).

**Q.** What about the “MIC Staphylococcus aureus (GC 4541)” value (Staphylococcus sp.; strain GC 4541) of the same compound?
**A.** The value was 8 µg/mL (≈ 5.36 µM).

**Q.** And the “MIC Staphylococcus aureus (GC 4542)” value (Staphylococcus sp.; strain GC 4542)?
**A.** The value was 8 µg/mL (≈ 5.36 µM).

**Q.** What about the “MIC Staphylococcus aureus (GC 4544)” value (Staphylococcus sp.; strain GC 4544) of the same compound?
**A.** The value was 8 µg/mL (≈ 5.36 µM).

**Q.** And the “MIC Staphylococcus aureus (GC 4545)” value (Staphylococcus sp.; strain GC 4545)?
**A.** Its value is 4 µg/mL (≈ 2.68 µM).

**Q.** And the “MIC Staphylococcus aureus-SMITH (GC 4543)” value (Staphylococcus sp.; strain GC 4543)?
**A.** Its value is 4 µg/mL (≈ 2.68 µM).

**Q.** And the “MIC Staphylococcus haemolyticus (GC 4546)” value (Staphylococcus sp.; strain GC 4546)?
**A.** The value was 8 µg/mL (≈ 5.36 µM).

**Q.** And the “MIC Coagulase Negative Staphylococcus (GC 4547)” value (Staphylococcus sp.; strain GC 4547)?
**A.** The value was 32 µg/mL (≈ 21.4 µM).

**Q.** And the “MIC Coagulase Negative Staphylococcus (GC 4548)” value (Staphylococcus sp.; strain GC 4548)?
**A.** Its value is 0.5 µg/mL (≈ 0.335 µM).

**Q.** And the “MIC Coagulase Negative Staphylococcus (GC 4549)” value (Staphylococcus sp.; strain GC 4549)?
**A.** The value was 2 µg/mL (≈ 1.34 µM).

**Q.** And the “MIC Coagulase Negative Staphylococcus (GC 4551)” value (Staphylococcus sp.; strain GC 4551)?
**A.** Its value is 4 µg/mL (≈ 2.68 µM).

**Q.** And the “MIC Coagulase Negative Staphylococcus (GC 6257)” value (Staphylococcus sp.; strain GC 6257)?
**A.** The value was 2 µg/mL (≈ 1.34 µM).

**Q.** What about the “MIC Streptococcus pneumoniae (ATCC 6301)” value (Streptococcus sp.; inoculum 5×10^5 CFU/mL) of the same compound?
**A.** Its value is less than 0.06 µg/mL.

**Q.** And the “MIC Streptococcus pneumoniae (GC 1894)” value (Streptococcus sp.; inoculum 5×10^5 CFU/mL)?
**A.** The value was less than 0.06 µg/mL.

**Q.** What about the “MIC Streptococcus pyogenes (GC 4563)” value (Streptococcus sp.; inoculum 5×10^5 CFU/mL) of the same compound?
**A.** The value was 0.12 µg/mL (≈ 0.0803 µM).

**Q.** And the “MIC Streptococcus agalactiae (GC 4564)” value (Streptococcus sp.; inoculum 5×10^5 CFU/mL)?
**A.** The value was less than 0.06 µg/mL.

**Q.** What about the “MIC Streptococcus pneumoniae (GC 4565)” value (Streptococcus sp.; inoculum 5×10^5 CFU/mL) of the same compound?
**A.** The value was less than 0.06 µg/mL.

**Q.** What about the “MIC Streptococcus pneumoniae (ATCC 6301)” value (Streptococcus sp.) of the same compound?
**A.** The value was less than 0.06 µg/mL.

**Q.** What about the “MIC Streptococcus pneumoniae (GC 1894)” value (Streptococcus sp.) of the same compound?
**A.** The value was less than 0.06 µg/mL.

**Q.** And the “MIC Streptococcus pyogenes (GC 4563)” value (Streptococcus sp.)?
**A.** The value was 0.12 µg/mL (≈ 0.0803 µM).

**Q.** And the “MIC Streptococcus agalactiae (GC 4564)” value (Streptococcus sp.)?
**A.** The value was less than 0.06 µg/mL.

**Q.** And the “MIC Streptococcus pneumoniae (GC 4565)” value (Streptococcus sp.)?
**A.** The value was less than 0.06 µg/mL.
